# Reference: patent US11169145B2, “Methods of detection and treatment for cardiovascular disease and foot wounds” (Washington University, priority 2017, dated 2021)
# Entries after “also recorded” stand apart in the source; their conditions may differ.
# Columns and labels:
# [1] = cited from earlier work
# [2] = cited from earlier work; remark: listed apart in the source
# [3] = cited from earlier work; remark: listed apart in the source
# [4] = cited from earlier work; remark: listed apart in the source
# [5] = MR-derived skeletal muscle blood flow (SMBF) in subjects with T2D with or without Cilostazol therapy; assay type: in vivo, human; details: subjects with T2D, 12 months of Cilostazol vs not treated, at rest and with exercise; critically ischemic limbs (ABI <0.5)
# Text: MG=Medial Gastrocnemius, SOL=Soleus, color bar unit=ml/min/100 g.
# [6] = system: serum circulating Fatty Acid Synthase (cFAS); test: Serum cFAS (ELISA) in subjects with T2D and PAD with or without Cilostazol therapy; assay type: in vivo, human; details: subjects with T2D and PAD receiving Cilostazol therapy vs subjects not receiving the medication
# Experimental: FIG. 9A-FIG. 9C is a series of graphs showing serum cFAS is a biomarker for disease subjects with PAD and T2D. cFAS was evaluated using 96-well ELISA (Aviva Systems Biology) FIG. 9A. Subjects with severe PAD (n=29) had more serum cFAS than subjects with moderate PAD (n=30), and subjects with no PAD (n=22). FIG. 9B. cFAS is elevated in subjects with T2D (n=40) compared to no T2D (n=41). FIG. 9C. cFAS is also elevated in subjects with DCSI ≥5 (n=15) compared to DCSI <5 (n=14). FIG. 11A-FIG. 11B is a pie chart and box plot showing cilostazol in our subjects with T2D and PAD. FIG. 11A. In our current clinical practice, Cilostazol therapy is currently administered to only a minority of subjects, and therefore the majority of patients would likely meet study eligibility criteria. FIG. 11B. Subjects with T2D and PAD who receive Cilostazol therapy have lower cFAS (whiskers indicate max and min values) in study cohort. Over a 1 year period, we collected serum specimens from subjects with peripheral arterial disease (PAD; severe or moderate), and/or T2D. Serum cFAS content and enzymatic activity was evaluated as a potential biomarker for PAD and T2D disease severity. […] We retrospectively reviewed patient encounters at the Barnes-Jewish Hospital vascular surgery clinic over a 6-month period to determine the prevalence of Cilostazol prescriptions among subjects with T2D, PAD and/or FWs.
# [7] = 8-week course, patients with T2D and PAD
# [8] = 3 to 6 month course of Cilostazol therapy
compound,measurement,setting,value
"O=C1CCc2cc(OCCCCc3nnnn3C3CCCCC3)ccc2N1 [Cilostazol, 6-[4-(1-cyclohexyl-1H-tetrazol-5-yl)butoxy]-3,4-dihydrocarbostyril]",increase in walking distance,"[1]; 3-month treatment course, patients with claudication",35-50%
same,limb function (walking distance),[1]; previous studies,improve
same,lower extremity ischemic symptoms,[2]; [7],improving
same,peripheral skin perfusion detected with transcutaneous oxygen pressure (TcPO2),[2]; [7],improve
same,onset of FWs,[2]; patients with T2D,prevent
same,peripheral skin perfusion,[2]; previous studies,enhance
same,wound healing,[2]; previous studies,promote
same,effect on Class III-IV heart failure,[3]; FDA black-box warning in this patient population,can exacerbate the condition
same,minor side effect: abdominal pain,[3]; incidence,5%
same,minor side effect: arthritis,[3]; incidence,2%
same,minor side effect: cough,[3]; incidence,4%
same,minor side effect: diarrhea,[3]; incidence,19%
same,minor side effect: dizziness,[3]; incidence,10%
same,minor side effect: dyspepsia,[3]; incidence,6%
same,minor side effect: flatulence,[3]; incidence,3%
same,minor side effect: headaches,[3]; incidence,34%
same,minor side effect: myalgia,[3]; incidence,3%
same,minor side effect: nausea,[3]; incidence,7%
same,minor side effect: pharyngitis,[3]; incidence,10%
same,minor side effect: skin rash,[3]; incidence,2%
same,minor side effect: vertigo,[3]; incidence,2%
same,minor side effect: vomiting,[3]; incidence,2%
same,pro-atherogenic / serum lipid profiles,[4]; [8],improve; also recorded: normalize
same,total cholesterol and serum LDL,[4]; [8],decrease
same,"risk of total vascular events, especially cerebrovascular events","[4]; meta-analysis of 12 RCTs, patients with T2D",significantly decrease
same,PUFA to SFA ratio,[4]; previous literature,alter
same,"skeletal muscle blood flow (SMBF), lower leg perfusion by MR",[5],improved perfusion; also recorded: Subject not treated with Cilostazol (top) demonstrated less lower leg perfusion
same,serum cFAS,[6],significantly lower
